Measurements reported in ChEMBL document CHEMBL4330082, “Tailoring a lead-like compound targeting multiple G-quadruplex structures” (Eur J Med Chem, 2019).
Activity calls are given as the source filed them. No cut-off for these calls is given here.

Assays:
[1] = test system: Quadruplex DNA; assay: Binding affinity to synthetic telomeric 26 G-quadruplex DNA assessed as residual binding at 60 uM after 4 mins by UV-Vis spectrophotometric analysis relative to control; format: nucleic-acid assay
[2] = test system: Quadruplex DNA; assay: Binding affinity to synthetic cMYC G-quadruplex DNA assessed as residual binding at 60 uM after 4 mins by UV-Vis spectrophotometric analysis relative to control; format: nucleic-acid assay
[3] = test system: dsDNA; assay: Binding affinity to synthetic 27-mer duplex DNA assessed as residual binding at 60 uM after 4 mins by UV-Vis spectrophotometric analysis relative to control; format: nucleic-acid assay
[4] = species: Homo sapiens; assay: Induction of telomeric DNA damage in human BJeH-LT cells expressing human TERT assessed as increase in TIF positive cells at 0.5 uM after 24 hrs by immunofluorescence assay; format: functional, cell-based
[5] = test system: Quadruplex DNA; assay: Binding affinity to synthetic c-Kit2 G-quadruplex DNA assessed as residual binding at 60 uM after 4 mins by UV-Vis spectrophotometric analysis relative to control; format: nucleic-acid assay
[6] = test system: Quadruplex DNA; assay: Binding affinity to human TERT1 G-quadruplex DNA assessed as residual binding at 60 uM after 4 mins by UV-Vis spectrophotometric analysis relative to control; format: nucleic-acid assay
[7] = test system: Quadruplex DNA; assay: Binding affinity to synthetic c-Kit1 G-quadruplex DNA assessed as residual binding at 60 uM after 4 mins by UV-Vis spectrophotometric analysis relative to control; format: nucleic-acid assay
[8] = species: Homo sapiens; assay: Induction of telomeric DNA damage in human BJeH-LT cells expressing human TERT assessed as increase in gamma-histone H2AX levels at 0.5 uM after 24 hrs by immunofluorescence assay; format: functional, cell-based
[9] = test system: HeLa; assay: Inhibition of colony formation in human HeLa cells at 2 uM after 10 days by methylene blue staining-based assay; format: functional, cell-based
[10] = test system: dsDNA; assay: Binding affinity to synthetic 12-mer duplex DNA assessed as melting temperature compound:DNA ratio of 4:1 by 1H NMR spectroscopic analysis; format: nucleic-acid assay
[11] = test system: dsDNA; assay: Induction of conformational changes in synthetic 27-mer duplex DNA at 1 to 5 equivalents after 5 mins by CD spectra analysis; format: nucleic-acid assay
[12] = test system: Quadruplex DNA; assay: Induction of conformational changes in synthetic cMYC G-quadruplex DNA at 1 to 5 equivalents after 5 mins by CD spectra analysis; format: nucleic-acid assay
[13] = test system: Quadruplex DNA; assay: Binding affinity to synthetic MYC 22 G-quadruplex DNA assessed as melting temperature compound:DNA ratio of 4:1 by 1H NMR spectroscopic analysis; format: nucleic-acid assay
[14] = test system: dsDNA; assay: Binding affinity to synthetic 27-mer duplex DNA assessed as melting temperature compound:DNA ratio of 5:1 after 5 mins by CD spectra analysis (reference value: 75 degreeC); format: nucleic-acid assay
[15] = test system: Quadruplex DNA; assay: Binding affinity to synthetic modified telomeric 24 G-quadruplex DNA assessed as melting temperature compound:DNA ratio of 4:1 by 1H NMR spectroscopic analysis; format: nucleic-acid assay
[16] = test system: HeLa; assay: Inhibition of colony formation in human HeLa cells at 0.5 to 2 uM after 10 days by methylene blue staining-based assay; format: functional
[17] = test system: Quadruplex DNA; assay: Binding affinity to synthetic cMYC G-quadruplex DNA assessed as melting temperature compound:DNA ratio of 5:1 after 5 mins by CD spectra analysis (reference value: 82 degreeC); format: nucleic-acid assay
[18] = test system: Quadruplex DNA; assay: Induction of conformational changes in synthetic telomeric 26 G-quadruplex DNA at 1 to 5 equivalents after 5 mins by CD spectra analysis; format: nucleic-acid assay
[19] = test system: BJ; assay: Cytotoxicity against in human BJ cells expressing human TERT assessed as reduction in cell viability at 1 to 2 uM incubated for 6 days by trypan blue exclusion assay; format: cell-based; conditions: 144 h
[20] = test system: Quadruplex DNA; assay: Binding affinity to synthetic telomeric 26 G-quadruplex DNA assessed as melting temperature compound:DNA ratio of 5:1 after 5 mins by CD spectra analysis (reference value: 49 degreeC); format: nucleic-acid assay
[21] = molecular target: Quadruplex DNA; assay: Binding affinity to Cy5-fluorescently labeled synthetic Telomeric 26 G-quadruplex DNA by microscale thermophoresis assay; format: nucleic-acid assay
[22] = molecular target: Quadruplex DNA; assay: Binding affinity to Cy5-fluorescently labeled synthetic MYC 22 G-quadruplex DNA by microscale thermophoresis assay; format: nucleic-acid assay

SMILES | Activity [1] [%] | Activity [2] [%] | Activity [3] [%] | Activity [4] | Activity [5] [%] | Activity [6] [%] | Activity [7] [%] | Activity [8] | inhibition [9] | other results
O=C1c2ccccc2C(=O)c2c1oc1c3c(ccc21)OCN(Cc1ccccc1)C3 | 80 | 87 | 12 | Active | 83 | 78 | 76 | Active | Active | 
O=C1c2ccccc2C(=O)c2c1oc1c3c(ccc21)OCN(Cc1ccco1)C3 | 86 | 93 | 2 | Active | 92 | 91 | 90 | Active | Active | 
O=C1c2ccccc2C(=O)c2c1oc1c3c(ccc21)OCN(CCC1=CCCCC1)C3 | 73 | 84 | 16 | Active | 67 | 73 | 55 | Active | Active | 
CC(=O)c1c(C)oc2c1c1c(c3ccccc32)OCN(CCCN2CCOCC2)C1 | 76 | 74 | 22 | inactive | 70 | 78 | 75 | inactive | Active | 
O=C1c2ccccc2C(=O)c2c1oc1c3c(ccc21)OCN(CC1CCS(=O)(=O)C1)C3 (stereo not given) | 75 | 73 | 16 | inactive | 68 | 76 | 72 | inactive | Active | 
O=C1c2ccccc2C(=O)c2c1oc1c3c(ccc21)OCN(CCCn1ccnc1)C3 | 80 | 94 | 46 | Active | 91 | 82 | 85 | Active | Active | 
O=C1c2ccccc2C(=O)c2c1oc1c3c(ccc21)OCN(CC1CCCO1)C3 (stereo not given) | 78 | 90 | 20 | Active | 83 | 87 | 88 | Active | Active | 
O=C1c2ccccc2C(=O)c2c1oc1c3c(ccc21)OCN(CCCN1CCOCC1)C3 | 80 | 89 | 33 | Active | 84 | 92 | 77 | Active | Active | 
O=C1c2ccccc2C(=O)c2c1oc1c3c(ccc21)OCN(C1CCCCC1)C3 | 86 | 86 | 18 | Active | 82 | 74 | 70 | Active |  | Activity [10]: inactive; Activity [11]: inactive; Activity [12]: Active; Activity [13]: Active; Tm [14]: 76 °C; Activity [15]: Active; MED [16]: 2 µM; Tm [17]: > 90 °C; Activity [18]: Active; Activity [19]: Toxic; Tm [20]: 49 °C
CC(c1ccccc1)N1COc2ccc3c4c(oc3c2C1)C(=O)c1ccccc1C4=O (stereo not given) | 80 | 84 | 0 | Active | 80 | 82 | 78 | Active |  | Activity [10]: inactive; Activity [11]: inactive; Activity [12]: Active; Activity [13]: Active; Tm [14]: 76 °C; Activity [15]: Active; Kd [21]: 26 µM; Tm [17]: > 90 °C; Activity [18]: Active; Activity [19]: Non-Toxic; Tm [20]: 50 °C; Kd [22]: 13 µM
O=C1c2ccccc2C(=O)c2c1oc1c3c(ccc21)OCN(Cc1cccnc1)C3 | 79 | 94 | 28 | inactive | 88 | 89 | 90 | inactive | Active | 
